This note sets out measurements from PubChem BioAssay AID1259407 (Chemical Carcinogenesis Research Information System (CCRIS), 2018).

The subject of the series is CCRIS mutagenicity, Ames/micronucleus/aberration tests. In words: CCRIS mutagenicity studies.
The mark [1] stands for this setting: Test System: AMES SALMONELLA TYPHIMURIUM, Strain/Indicator: TA98, Metabolic Activation: NONE, Method: STANDARD PLATE.

Calls of active or inactive are those of the source. No rule for the calls is given here.

`CC[C@H]1OC(=O)[C@H](C)[C@@H](O[C@H]2C[C@@](C)(OC)[C@@H](O)[C@H](C)O2)[C@H](C)[C@@H](O[C@@H]2O[C@H](C)C[C@H](N(C)C)[C@H]2O)[C@](C)(O)C[C@@H](C)CN(C)[C@H](C)[C@@H](O)[C@]1(C)O`: the mutagenic call is “inactive; negative” (Test System: AMES SALMONELLA TYPHIMURIUM, Strain/Indicator: TA98, Metabolic Activation: MOUSE, LIVER, S-9, AROCLOR 1254, Method: STANDARD PLATE); “inactive; negative” (Test System: AMES SALMONELLA TYPHIMURIUM, Strain/Indicator: TA98, Metabolic Activation: MOUSE, LIVER, S-9, Method: STANDARD PLATE); “inactive; negative” under setting [1]; “inactive; negative” (Test System: AMES SALMONELLA TYPHIMURIUM, Strain/Indicator: TA98, Metabolic Activation: RAT, LIVER, S-9, AROCLOR 1254, Method: STANDARD PLATE); “inactive; negative” (Test System: AMES SALMONELLA TYPHIMURIUM, Strain/Indicator: TA98, Metabolic Activation: RAT, LIVER, S-9, Method: STANDARD PLATE); “inactive; negative” (Test System: AMES SALMONELLA TYPHIMURIUM, Strain/Indicator: TA100, Metabolic Activation: MOUSE, LIVER, S-9, AROCLOR 1254, Method: STANDARD PLATE). Further, the mutagenic call (Test System: AMES SALMONELLA TYPHIMURIUM, Strain/Indicator: TA100, Metabolic Activation: MOUSE, LIVER, S-9, Method: STANDARD PLATE) is “inactive; negative”; the mutagenic call (Test System: AMES SALMONELLA TYPHIMURIUM, Strain/Indicator: TA100, Metabolic Activation: NONE, Method: STANDARD PLATE) was “inactive; negative”; the mutagenic call (Test System: AMES SALMONELLA TYPHIMURIUM, Strain/Indicator: TA100, Metabolic Activation: RAT, LIVER, S-9, AROCLOR 1254, Method: STANDARD PLATE) is “inactive; negative”; the mutagenic call (Test System: AMES SALMONELLA TYPHIMURIUM, Strain/Indicator: TA100, Metabolic Activation: RAT, LIVER, S-9, Method: STANDARD PLATE) was “inactive; negative”; the mutagenic call (Test System: AMES SALMONELLA TYPHIMURIUM, Strain/Indicator: TA1535, Metabolic Activation: MOUSE, LIVER, S-9, AROCLOR 1254, Method: STANDARD PLATE) is “inactive; negative”; the mutagenic call (Test System: AMES SALMONELLA TYPHIMURIUM, Strain/Indicator: TA1535, Metabolic Activation: MOUSE, LIVER, S-9, Method: STANDARD PLATE) is “inactive; negative”. Besides, the mutagenic call (Test System: AMES SALMONELLA TYPHIMURIUM, Strain/Indicator: TA1535, Metabolic Activation: NONE, Method: STANDARD PLATE) is “inactive; negative”; the mutagenic call (Test System: AMES SALMONELLA TYPHIMURIUM, Strain/Indicator: TA1535, Metabolic Activation: RAT, LIVER, S-9, AROCLOR 1254, Method: STANDARD PLATE) is “inactive; negative”; the mutagenic call (Test System: AMES SALMONELLA TYPHIMURIUM, Strain/Indicator: TA1535, Metabolic Activation: RAT, LIVER, S-9, Method: STANDARD PLATE) is “inactive; negative”; the mutagenic call (Test System: AMES SALMONELLA TYPHIMURIUM, Strain/Indicator: TA1537, Metabolic Activation: MOUSE, LIVER, S-9, AROCLOR 1254, Method: STANDARD PLATE) is “inactive; negative”; the mutagenic call (Test System: AMES SALMONELLA TYPHIMURIUM, Strain/Indicator: TA1537, Metabolic Activation: MOUSE, LIVER, S-9, Method: STANDARD PLATE) is “inactive; negative”; the mutagenic call (Test System: AMES SALMONELLA TYPHIMURIUM, Strain/Indicator: TA1537, Metabolic Activation: NONE, Method: STANDARD PLATE) is “inactive; negative”. For the same compound, the mutagenic call reads like this: (Test System: AMES SALMONELLA TYPHIMURIUM, Strain/Indicator: TA1537, Metabolic Activation: RAT, LIVER, S-9, AROCLOR 1254, Method: STANDARD PLATE) “inactive; negative”; (Test System: AMES SALMONELLA TYPHIMURIUM, Strain/Indicator: TA1537, Metabolic Activation: RAT, LIVER, S-9, Method: STANDARD PLATE) “inactive; negative”; (Test System: MOUSE LYMPHOMA, Strain/Indicator: L5178Y (TK+/TK-), Metabolic Activation: NONE, Method: SUSPENSION/PLATE) “inactive; negative”; (Test System: MOUSE LYMPHOMA, Strain/Indicator: L5178Y (TK+/TK-), Metabolic Activation: RAT, LIVER, S-9, Method: SUSPENSION/PLATE) “inactive; negative”.

`NNC(N)=O`: the mutagenic call is, setting by setting: (End Point: IN VIVO MICRONUCLEUS, Test System: POLYCHROMATIC ERYTHROCYTES, Species: MOUSE, Strain/Sex: BALB/C/MALE, Route: IP INJECTION) “inactive; negative”; (End Point: IN VIVO MICRONUCLEUS, Test System: POLYCHROMATIC ERYTHROCYTES, Species: MOUSE, Strain/Sex: CBA/MALE, Route: IP INJECTION) “inactive; negative”.

Consider `O=Nc1ccc2ccc3c4ccccc4cc4ccc1c2c43`, for which the mutagenic call by setting is: (Test System: AMES SALMONELLA TYPHIMURIUM, Strain/Indicator: TA98 (1,8-DNP6), Metabolic Activation: NONE, Method: STANDARD PLATE) “active; positive”; (Test System: AMES SALMONELLA TYPHIMURIUM, Strain/Indicator: TA98 (NR), Metabolic Activation: NONE, Method: STANDARD PLATE) “active; positive”; under setting [1], “active; positive”; (Test System: CHINESE HAMSTER OVARY, Strain/Indicator: CHO-K1-BH4 (HGPRT), Metabolic Activation: NONE) “active; positive”.

Turning to `CCC(C)Cl` (configuration not stated), the mutagenic call was “inactive; negative” (Test System: Mouse lymphoma, Strain/Indicator: L5178Y (tk+/tk-), Metabolic Activation: None, Method: Suspension/plate) and “inactive; negative” (Test System: Mouse lymphoma, Strain/Indicator: L5178Y (tk+/tk-), Metabolic Activation: Rat, Liver, S-9, Aroclor 1254, Method: Suspension/plate).

As to `NS(=O)(=O)c1cccc2cccnc12`, the mutagenic call (Test System: AMES SALMONELLA TYPHIMURIUM, Strain/Indicator: TA100, Metabolic Activation: S-9, Method: PREINCUBATION) is “inactive; negative”.

Turning to `CCN(CC)c1ccc(C(=C2C=CC(=[N+](CC)CC)C=C2)c2ccccc2)cc1`, the mutagenic call (Test System: AMES SALMONELLA TYPHIMURIUM, Strain/Indicator: TA100, Method: PREINCUBATION) is “active; positive”.
